Article PMC3988166 (PLoS ONE, 2014)
Like-named read-outs stand apart in the source and are kept apart here.

T1: Recombinant human ASGPR (Homo sapiens, UniProt P07306)
T1 construct: purchased Sino Biological Inc. (Beijing, China)
T1 sequence (P07306 62-291 limits assumed): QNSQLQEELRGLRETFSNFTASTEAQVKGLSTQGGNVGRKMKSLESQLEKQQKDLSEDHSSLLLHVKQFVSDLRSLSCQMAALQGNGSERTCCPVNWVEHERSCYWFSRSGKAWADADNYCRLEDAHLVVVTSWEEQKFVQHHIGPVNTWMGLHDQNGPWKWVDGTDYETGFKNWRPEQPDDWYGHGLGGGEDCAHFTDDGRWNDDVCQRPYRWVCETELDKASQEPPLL


Key:
[1] = Plasma stability assay; type: in vitro ADME; conditions: human, after incubation at 37°C for 120 min, read-out: % remained in human plasma
Protocol: Blood sample collection from a healthy and consenting human adult for this study was approved by and conducted according to the guidelines set by The University of Queensland Medical Research Ethics Committee (approval number: 2009000661). Written consent was obtained prior to the collection of blood samples. Plasma was isolated from fresh-heparin treated blood by centrifugation at 660×g for 15 min. […] Compounds (300 µL) were mixed with 300 µL of the plasma, pre-warmed at 37°C and incubated at 37°C. Samples (50 µL) were collected at predetermined time points (0, 5, 10, 20, 30, 40, 60, 90 and 120 min), and added into 75 µL ACN to precipitate the plasma proteins. Samples were then centrifuged at 7300×g for 10 min.

[2] = Caco-2 cell permeability assay in the presence of phloretin (inhibitor for GLUT2); type: in vitro ADME, human; conditions: Caco-2 cell monolayer, 200 µM compound + 100 µM phloretin, n = 3; read-out: P app, Phloretin
Protocol: (§1) Permeability experiments (as described above) were conducted to investigate whether the compounds used the sugar transporters SGLT1 or GLUT2 for their transport across cell membranes. Samples containing 200 µM test compound and 100 µM phlorizin (inhibitor for SGLT1) or 100 µM phloretin (inhibitor for GLUT2) in HBSS-HEPES buffer were added to the apical chamber. […] P app values for each compound were then calculated as above.

[3] = Caco-2 cell permeability assay; conditions: Caco-2; for Papp A→B at 150 min, 200 µM: human
Protocol: (§2) Human colorectal adenocarcinoma cells (Caco-2 cells) were obtained from the American Type Culture Collection, Rockville, USA. A Branson Sonifier 250 (Branson Ultrasonics, Danbury, USA) was used to lyse the cells for stability experiments. Protein content was measured using the BioRad protein assay kit (BioRad, Hercules, USA). TPP 96-well plates for stability assays were purchased from Sigma Aldrich (Castle Hill, Australia). For permeability studies Caco-2 cell monolayers were grown in 24 well plates with Transwell polycarbonate cell culture inserts (pore size 0.4 µm, diameter 6.5 mm) from Corning Incorporated (New York, USA). A Millicell-ERS epithelial Transep volt-ohmmeter system (EMD Millipore Corporation, Billerica, USA) was used to measure the transepithelial electrical resistance (TEER) values of the cells. Scintillation counting was carried out using Liquid Scintillation Systems from Beckman Coulter (Brea, USA).
(§3) A cell suspension of Caco-2 cells in the cell culture medium was adjusted to a cell density of 1×10^6 cells/mL before being aliquoted (100 µL) into Transwell polycarbonate cell culture inserts in a 24-well plate, while 600 µL of media was added to the basolateral chamber. The culture medium was changed every other day for 21–28 days. TEER values were measured before and after the assay, to determine the integrity of tight junctions of the cell monolayers. […] Cell monolayers were washed with pre-warmed HBSS–HEPES and incubated for 30 min at 37°C. Test compounds and the control propanolol, were prepared in HBSS–HEPES buffer to a final concentration of 200 µM. After incubation, buffer in the apical chamber was removed and replaced with 100 µL aliquots of each of the test compounds. […] The concentration of the peptide in the collected samples was determined using LC-MS analysis as described for the stability assay above. Radioactivity of the [^14C]-D-mannitol samples was quantified by liquid scintillation counting (Liquid Scintillation Systems).
(§4) The apparent permeability (Papp, cm/s) of each compound was calculated using the following equation: [drawing 1]
(§5) Where dC/dt is the steady-state rate of change in the test item concentration (M/s) or radiochemical concentration (dpm mL/s) in the receiver chamber, Vr is the volume of the receiver chamber (mL), A is the surface area of the cell monolayers and C0 is the initial concentration in the donor chamber (M or dpm/mL).
(§6) The average Papp values (±S.D.) from three replicates is presented.

[4] = target: T1, Recombinant human ASGPR; assay: biochemical; type: binding
Protocol: SPR experiments were performed on a Biacore T100 (GE Healthcare, Little Chalfont, UK) at 25°C. Recombinant human ASGPR (the subunit of ASGPR that contains the carbohydrate binding site) used was from Sino Biological Inc. (Beijing, China). The receptor was immobilized onto a series S sensor chip CM5 (GE Healthcare, Little Chalfont, UK) using the N-hydroxysuccinimide (NHS) capture kit (GE Healthcare, Little Chalfont, UK).
Recombinant human ASGPR was immobilized onto a series S sensor chip CM5 using the NHS capture kit, where ASGPR was covalently linked to the surface of the chip via free amine groups. Compounds were tested at 10–1000 µM concentrations using multi-cycle kinetics with at least three experiments performed for each interaction. Single cycle kinetics was applied to optimize concentrations prior to completion of multi-cycle kinetics as described by Dumont et al.. […] The running buffer for all SPR experiments was 20 mM HEPES, pH 7.4, 150 mM NaCl, 5 mM CaCl2, and 0.005% TWEEN 20.

[5] = Caco-2 cell permeability assay in the presence of phlorizin (inhibitor for SGLT1); type: in vitro ADME, human; conditions: Caco-2 cell monolayer, 200 µM compound + 100 µM phlorizin, n = 3; read-out: P app, Phlorizin
Protocol: as §1

[6] = test system: Caco-2 cell monolayers; assay: Caco-2 cell permeability assay
Protocol: as §2, §3, §4, §5, §6

[7] = target: Leu-enkephalin (Homo sapiens); assay: SPR
[8] = target: Lac-Enk (Homo sapiens); assay: SPR
[9] = target: Gal-Lac-Enk (Homo sapiens); assay: SPR
[10] = target: Gal-Enk (Homo sapiens); assay: SPR

Row | Molecule | Papp A→B [2] | Papp A→B at 150 min, 200 µM [3] | koff [4] | kon [4] | Kd ([4]; KD) | Papp A→B [5] | also measured
1 | CC(C)C[C@H](NC(=O)[C@H](Cc1ccccc1)NC(=O)CNC(=O)CNC(=O)[C@H](Cc1ccc(O)cc1)NC(=O)CCC(=O)N[C@@H]1O[C@H](CO)[C@@H](O[C@@H]2O[C@H](CO)[C@H](O[C@H]3O[C@H](CO)[C@H](O)[C@H](O)[C@H]3O)[C@H](O)[C@H]2O)[C@H](O)[C@H]1O)C(N)=O [Gal-Lac-Enk, N^1-Leu-enkephalin-N^4-(α-D-galactopyranosyl-(1→4)-β-D-galactopyranosyl-(1→4)-β-D-glucopyranosyl)succinamide] | 0.712 ± 0.137 ×10⁻⁶ cm/s | 0.44 ± 0.163 ×10⁻⁶ cm/s | 0.0041 ± 0.003 s⁻¹ | 45 ± 28.9 M⁻¹ s⁻¹ | 91.1 ± 22.1 µM | 0.561 ± 0.137 ×10⁻⁶ cm/s | remaining at 2 h ([1]; plasma): ~100%; increase in binding affinity compared to the peptide alone [4]: two-fold
2 | CC(C)NCC(O)COc1cccc2ccccc12 (stereo not drawn) [propanolol, reference compound] | – | 134 ×10⁻⁶ cm/s | – | – | – | – | –
3 | OC[C@@H](O)[C@@H](O)[C@H](O)[C@H](O)CO [^14C mannitol, [^14C]-D-mannitol, reference compound] | – | – | – | – | – | – | apparent permeability (Papp) ([6]; Caco-2 monolayers, apical to basolateral, compound only, values in text): 4.4×10^−9 (±3.86) cm/s
4 | OC[C@H]1O[C@@H](O[C@H]2[C@H](O)[C@@H](O)[C@H](O)O[C@@H]2CO)[C@H](O)[C@@H](O)[C@H]1O [D-Lactose, reference compound] | – | – | – | – | – | – | Kd ([4]; SPR, immobilized ASGPR, 25°C, read-out: KD): 19.2 ± 3.28 µM
5 | CC(C)C[C@H](NC(=O)[C@H](Cc1ccccc1)NC(=O)CNC(=O)CNC(=O)[C@H](Cc1ccc(O)cc1)NC(=O)CCC(=O)N[C@@H]1O[C@H](CO)[C@@H](O[C@@H]2O[C@H](CO)[C@H](O)[C@H](O)[C@H]2O)[C@H](O)[C@H]1O)C(N)=O [Lac-Enk, N^1-Leu-enkephalin-N^4-(β-D-galactopyranosyl-(1→4)-β-D-glucopyranosyl)succinamide] | 0.921 ± 0.084 ×10⁻⁶ cm/s | – | 0.0086 ± 0.002 s⁻¹ | 40.7 ± 6.3 M⁻¹ s⁻¹ | 211 ± 70.9 µM | 0.711 ± 0.145 ×10⁻⁶ cm/s | remaining at 2 h, 0.5 mg/mL [1]: ~70%; Papp A→B [3]: 1.72 ×10⁻⁶ cm/s; P app, Control (compound only) ([6]; Caco-2 cell monolayer, 200 µM, n = 3): 17.20±12.40 ×10^−7 cm/s
6 | CC(C)C[C@H](NC(=O)[C@H](Cc1ccccc1)NC(=O)CNC(=O)CNC(=O)[C@H](Cc1ccc(O)cc1)NC(=O)CCC(=O)N[C@@H]1O[C@H](CO)[C@H](O)[C@H](O)[C@H]1O)C(N)=O [Gal-Enk, N^1-Leu-enkephalin-N^4-(β-D-galactopyranosyl)succinamide] | 1.58 ± 0.723 ×10⁻⁶ cm/s | 0.798 ± 0.203 ×10⁻⁶ cm/s | 0.072 ± 0.025 s⁻¹ | 328 ± 84.8 M⁻¹ s⁻¹ | 219 ± 164 µM | 1.18 ± 0.276 ×10⁻⁶ cm/s | remaining at 2 h, 0.5 mg/mL [1]: ~60%
7 | Asialoglycoprotein receptor (ASGPR, carbohydrate-binding subunit), P07306 (protein) MTKEYQDLQHLDNEESDHHQLRKGPPPPQPLLQRLCSGPRLLLLSLGLSLLLLVVVCVIGSQNSQLQEELRGLRETFSNFTASTEAQVKGLSTQGGNVGRKMKSLESQLEKQQKDLSEDHSSLLLHVKQFVSDLRSLSCQMAALQGNGSERTCCPVNWVEHERSCYWFSRSGKAWADADNYCRLEDAHLVVVTSWEEQKFVQHHIGPVNTWMGLHDQNGPWKWVDGTDYETGFKNWRPEQPDDWYGHGLGGGEDCAHFTDDGRWNDDVCQRPYRWVCETELDKASQEPPLL | – | – | – | – | – | – | Kd [7]: 277 µM; Kd [8]: 211 µM; Kd [9]: 91.1 µM; Kd [10]: 219 µM
